1 compound from US20260242320A1, “USE OF CANNABIDIOL DERIVATIVE IN PREPARATION OF MEDICAMENT” (priority 2023, published 2026) can be followed below.

Entries after “also recorded” stand apart in the source; their conditions may differ.

A word on the IC50: it is the point on the concentration scale where inhibition reaches its midpoint.

One data set relates to BV-2 cellular viability. Description: Cell viability / cytotoxicity by crystal violet staining. The format is cell-based. The procedure: 100 μL of culture medium were transferred to a black 96-well plate for later use. Following removal of old culture medium, 100 μL of 4% paraformaldehyde was added for fixation. Fixation was performed for 5 minutes. Paraformaldehyde was then removed, and 100 μL of 0.05% crystal violet was added. The resultant mixture was incubated for 15 minutes, after which time crystal violet was removed and the mixture was slowly rinsed with water three times. Next, 150 μL of ethanol was added, and the mixture was incubated for 15 minutes. After incubation, the absorbance was measured at 540 nm using a spectrophotometer. Viability (%)=100× Fluorescence values of the dosing group/Fluorescence values of the blank group.
Cell viability was determined by crystal violet staining. Briefly, BV-2 cells were treated as indicated in the NO assay. The media was removed, and then 4% paraformaldehyde was added to fix the cells for 5 min. Cells were stained with 100 μL 0.05% crystal violet for 15 min and washed with water 2 times. Next, 150 μL of ethanol was added to each well, and the plate was incubated for 15 min at room temperature. Absorbance at 540 nm was measured using a SYNERGY H1 Microplate Reader.

Data set [1] deals with LPS-induced IL-1β, TNF-α, IL-6, iNOS, IL-10 mRNA in BV-2 cells. Description: qRT-PCR of proinflammatory and M1/M2 marker mRNAs in LPS-treated BV-2 cells. The format is cell-based. The procedure:
Total RNA was extracted from cells or mouse brains using the RNeasy Mini Kit. Isolated RNA was reverse-transcribed into cDNA using an RT2 Easy First Strand cDNA Synthesis Kit following the manufacturer's protocols. PCR amplification was conducted using synthetic primers, SYBR Green, and a TOptical Real-Time qPCR Thermal Cycler (Analytik Jena, Thuringia, Germany). The data were analyzed by the […] method, and Rpl711 or Rpl27 was used as an internal control.
Background: In qPCR the cycle at which signal appears reflects the starting amount.

Data set [2] has as its system morphine-conditioned mice. The experiment in a line: Morphine-induced conditioned place preference (CPP). The format is in vivo. The conditions noted are these: 0.2 mg/kg i.p. The procedure:
Conditional place conditioning (CPP) was conducted using the classic 10-consecutive-day procedure. On days 1 and 2, each mouse was separately placed into the CPP apparatus for 15 min to habituate the apparatus. On day 3 (preconditioning), the time spent in each compartment was recorded to determine any preference for the two compartments. Mice were divided into three groups: vehicle group, 7.5 mg/kg morphine, as well as 7.5 mg/kg morphine+0.2 mg/kg CIAC001. During the conditioning phase, mice were separately isolated in the compartment for 30 min on 6 consecutive days. Mice were given morphine on days 4, 6, and 8, and vehicle (5 mL/kg) was administered on days 5, 7, and 9. The postconditioning phase was carried out 24 h after the last conditioning session. Each mouse was placed in the apparatus and explored freely, and the time spent in each compartment was recorded for 15 min. The CPP score(s) was calculated using the time spent in the drug-paired compartment minus the time spent in the vehicle-paired compartment.

The subject of data set [3] is microglial activation marker Iba1. Description: Iba1 immunofluorescence staining of brain sections. The format is in vivo, mice. Particulars: chronic morphine. The procedure:
Mice were anesthetized with tribromoethanol following the CPP assay and intracardially perfused with 8 mL saline; the brains were then stripped out and embedded in paraffin. The brain was sectioned coronally at 5 μm thickness on a vibrating microtome. Paraffin-processed tissues were deparaffinized in xylene and rehydrated with a graded alcohol solution. The sections were placed in 0.01 M citrate buffer (pH 6.0) and heated in a microwave oven for hot antigen repair. These sections were incubated with goat serum for 20 min at 37° C. and then with rabbit anti-Iba1 monoclonal antibody at 4° C. overnight. After three washes with PBS, the sections were incubated with an Alexa-488-conjugated secondary antibody for 1 h in the dark. Ultimately, followed by three washes with PBS twice for 5 min each, the sections were counterstained with DAPI and examined under a confocal microscope

The nature of data set [4]: Y-maze test of short-term memory. The format is in vivo, mice. Particulars: CIAC001 20 mg/kg i.p.; THC 10 mg/kg i.p. The procedure: Mice were tested for short-term memory using a Y-maze task. Briefly, mice were placed into the Y-maze for 10 min once daily to habituate the apparatus for two consecutive days. After daily habituation, the mice were then treated with CIAC001 (20 mg/kg) or THC (10 mg/kg). On the 3rd day, mice were pretreated with CIAC001 or THC 45 min before the Y-maze test. Next, the “new arm” was blocked, and mice had 5 min to freely explore two arms (the “start arm” and the “old arm”, FIG. 8F). Mice were then removed from the Y-maze and placed into the cages for 2 min. During the test phase, mice were allowed to freely explore all three arms for 2 min, and the time spent in each arm was recorded and analyzed using the Noldus analyzing software. To eliminate olfactory interference, the Y-maze was wiped off with 70% alcohol after each test.

Data set [5] is described as follows: Body weight during 7 days of administration. The format is in vivo, mice. Particulars: during drug treatment vs vehicle. On the procedure:
Mice were intraperitoneally injected with 20 mg/kg CIAC001 or 10 mg/kg THC once daily. After 1 h, the mice were anesthetized with isoflurane by a small animal anesthesia machine (R500IE, RWD Life Science Co) on day 2 and day 5. The respiratory rate of mice was recorded three times within 20 s. The weights of mice were recorded every day.

In the next data set the target is T1, CB1 Receptor (Homo sapiens, UniProt P21554).
T1 construct: expressed in transfected cells; host or cells: GloSensor 22-F HEK293 cells
The experiment in a line: cAMP measurement, forskolin-induced cAMP accumulation, CB1. The format is cell-based. The conditions noted are these: cAMP assay. The procedure:
GloSensor 22-F HEK293 cells were transfected with plasmids encoding different receptors (CB1 and CB2). After 24 h, HEK293 cells were seeded at a density of 5×10^4 cells per well in 96-well plates and incubated for 8 h; then, the medium was removed, and 200 μL of serum-free DMEM medium containing 2% GloSensor cAMP substrate (Promega) was added. After 2 h incubation, the transfected cells were stimulated with different concentrations of ligands together with […]. The luminescence was recorded using a Multimode Plate Reader (En Vision, PerkinElmer).

Data set [6] is described as follows: Pharmacokinetic profiles in brain and plasma after oral administration. The format is in vivo, mice. Particulars: male, BALB/c, mouse, 10 mg/kg p.o., read-out: B/P ratio.
Setting [7] is: LPS-treated cells, mRNA by qPCR.

T1 sequence (P21554 whole entry): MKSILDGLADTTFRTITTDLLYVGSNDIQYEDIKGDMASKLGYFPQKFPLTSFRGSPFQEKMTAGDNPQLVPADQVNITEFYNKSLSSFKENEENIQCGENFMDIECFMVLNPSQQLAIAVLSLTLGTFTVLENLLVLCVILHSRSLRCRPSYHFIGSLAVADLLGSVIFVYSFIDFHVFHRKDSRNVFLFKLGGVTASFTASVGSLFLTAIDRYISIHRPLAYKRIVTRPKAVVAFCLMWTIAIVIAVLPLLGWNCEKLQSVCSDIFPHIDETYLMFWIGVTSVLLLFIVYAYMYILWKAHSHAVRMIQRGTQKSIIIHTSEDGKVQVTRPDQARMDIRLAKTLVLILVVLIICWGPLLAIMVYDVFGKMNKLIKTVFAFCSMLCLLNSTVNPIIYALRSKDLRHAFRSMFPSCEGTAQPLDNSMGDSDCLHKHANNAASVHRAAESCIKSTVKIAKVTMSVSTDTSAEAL

For the compound `C=C(C)[C@@H]1CCC(C)=C[C@H]1c1c(O)cc(C(C)n2nccn2)cc1O` (stereo partly drawn) [CIAC001, (1′R,2′R)-4-(1-(2H-1,2,3-Triazol-2-yl)ethyl)-5′-methyl-2′-(prop-1-en-2-yl)-1′,2′,3′,4′-tetrahydro-[1,1′-biphenyl]-2,6-diol], the half-inhibitory concentration (IC50) with BV-2 cellular viability (Mus musculus, BV-2 cells, read-out: Cellular toxicity (IC50 inhibiting BV-2 cellular viability)) turned out to be 57.8 ± 7.6 µM. Also, in the data set on BV-2 cellular viability (vs CBD), the “fold less cytotoxicity compared to CBD” value was 6.8 fold. In data set [1] (BV-2 cells), the “LPS-induced overexpression of IL-1β mRNA” value is on record as “concentration-dependently inhibited”, the “LPS-induced overexpression of IL-6 mRNA” value is recorded as “concentration-dependently inhibited” and the “LPS-induced overexpression of TNF-α mRNA” value was “concentration-dependently inhibited”. Moreover, in data set [1] (setting [7]), the “expression of M1 phenotype markers IL-1β and iNOS” value is listed as “inhibited LPS-induced increased expression”; the “expression of M2 phenotype marker IL-10” value is “attenuated LPS-induced decreased expression”. The “expression of morphine-induced CPP” value in data set [2] is on record as “substantially decreased; also recorded: ameliorated”. Also, the “expression of Iba1 in the mPFC” value in data set [3] is listed as “decreased the expression of Iba1”. Besides, the “time spent on the new arm (Y maze)” value in data set [4] is recorded as “did not affect the time mice spent on the new arm”. Moreover, the body weights entry in data set [5] is recorded as “did not change”. Further, the “CB1 receptor activity” value at CB1 Receptor is “no apparent CB1/CB2 activity”. The Kp at 0.083 h in data set [6] (0.083 h) was 2.07 ± 0.907. Also, the Kp at 0.25 h in data set [6] (0.25 h) is 2.78 ± 0.389.
